Measurements: ChEMBL document CHEMBL4507276 (2021)

Key:
[1] = molecular target: Serine/threonine-protein kinase VRK2 (Homo sapiens) (UniProt Q86Y07); details: Compound concentration 1000.0 nM
[2] = molecular target: Death-associated protein kinase 3 (Homo sapiens) (UniProt O43293); details: Compound concentration 1000.0 nM
[3] = molecular target: Tyrosine-protein kinase BTK (Homo sapiens) (UniProt Q06187); assay: BTK Invitrogen selectivity data (BI); details: Compound concentration 3.0 uM
[4] = molecular target: Dual specificity tyrosine-phosphorylation-regulated kinase 4 (Homo sapiens) (UniProt Q9NR20); assay: DYRK4 Invitrogen selectivity data (BI); details: Compound concentration 3.0 uM
[5] = molecular target: Mu-type opioid receptor (Homo sapiens) (UniProt P35372); assay: MU/HU Eurofins-Panlabs selectivity data (BI); details: Compound concentration 10.0 uM
[6] = molecular target: Matrix metalloproteinase-9 (Homo sapiens) (UniProt P14780); assay: MMP-9 (H) Cerep selectivity data (BI); details: Compound concentration 20.0 uM
[7] = molecular target: Tyrosine-protein kinase ABL1 (Homo sapiens) (UniProt P00519); assay: ABL1 Invitrogen selectivity data (BI); details: Compound concentration 3.0 uM
Homo sapiens = species on record: Homo sapiens; assay: MLCK Invitrogen selectivity data (BI); details: Compound concentration 3.0 uM
[8] = molecular target: Motilin receptor (Homo sapiens) (UniProt O43193); assay: MOTILINH_AGON Cerep selectivity data (BI); details: filed as agonist, Compound concentration 20.0 uM
Motilin receptor (Homo sapiens), sequence (O43193 whole entry): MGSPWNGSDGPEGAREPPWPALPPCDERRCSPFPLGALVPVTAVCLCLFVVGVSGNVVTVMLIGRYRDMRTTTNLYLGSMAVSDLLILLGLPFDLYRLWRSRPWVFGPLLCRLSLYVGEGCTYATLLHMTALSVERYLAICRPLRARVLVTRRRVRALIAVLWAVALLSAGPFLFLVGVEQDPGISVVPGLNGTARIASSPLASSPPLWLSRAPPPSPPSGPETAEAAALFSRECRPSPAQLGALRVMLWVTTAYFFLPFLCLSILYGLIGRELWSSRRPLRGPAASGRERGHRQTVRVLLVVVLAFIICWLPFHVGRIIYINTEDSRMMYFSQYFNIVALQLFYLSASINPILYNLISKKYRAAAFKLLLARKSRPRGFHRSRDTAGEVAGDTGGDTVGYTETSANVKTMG

[9] = molecular target: Serine/threonine-protein kinase Chk2 (Homo sapiens) (UniProt O96017); assay: CHEK2 Invitrogen selectivity data (BI); details: Compound concentration 3.0 uM
Serine/threonine-protein kinase Chk2 (Homo sapiens), sequence (O96017 whole entry): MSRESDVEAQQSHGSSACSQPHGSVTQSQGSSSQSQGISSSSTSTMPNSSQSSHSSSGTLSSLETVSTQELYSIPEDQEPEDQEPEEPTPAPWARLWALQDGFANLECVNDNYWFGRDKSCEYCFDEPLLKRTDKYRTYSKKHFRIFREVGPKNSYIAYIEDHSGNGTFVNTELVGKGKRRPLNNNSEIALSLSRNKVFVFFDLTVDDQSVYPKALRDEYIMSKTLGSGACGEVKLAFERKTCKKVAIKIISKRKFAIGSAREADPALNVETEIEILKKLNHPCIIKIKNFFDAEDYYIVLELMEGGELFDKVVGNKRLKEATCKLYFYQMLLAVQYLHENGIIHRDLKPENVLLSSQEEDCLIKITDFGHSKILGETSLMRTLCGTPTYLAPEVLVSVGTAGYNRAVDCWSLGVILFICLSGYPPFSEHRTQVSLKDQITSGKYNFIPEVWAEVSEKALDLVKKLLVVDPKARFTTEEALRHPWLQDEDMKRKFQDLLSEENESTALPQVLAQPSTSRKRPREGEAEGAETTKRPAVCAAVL

[10] = molecular target: T1, Ephrin type-A receptor 8 (Homo sapiens) (UniProt P29322); assay: EPHA8 Invitrogen selectivity data (BI); details: Compound concentration 3.0 uM
T1 sequence (whole entry): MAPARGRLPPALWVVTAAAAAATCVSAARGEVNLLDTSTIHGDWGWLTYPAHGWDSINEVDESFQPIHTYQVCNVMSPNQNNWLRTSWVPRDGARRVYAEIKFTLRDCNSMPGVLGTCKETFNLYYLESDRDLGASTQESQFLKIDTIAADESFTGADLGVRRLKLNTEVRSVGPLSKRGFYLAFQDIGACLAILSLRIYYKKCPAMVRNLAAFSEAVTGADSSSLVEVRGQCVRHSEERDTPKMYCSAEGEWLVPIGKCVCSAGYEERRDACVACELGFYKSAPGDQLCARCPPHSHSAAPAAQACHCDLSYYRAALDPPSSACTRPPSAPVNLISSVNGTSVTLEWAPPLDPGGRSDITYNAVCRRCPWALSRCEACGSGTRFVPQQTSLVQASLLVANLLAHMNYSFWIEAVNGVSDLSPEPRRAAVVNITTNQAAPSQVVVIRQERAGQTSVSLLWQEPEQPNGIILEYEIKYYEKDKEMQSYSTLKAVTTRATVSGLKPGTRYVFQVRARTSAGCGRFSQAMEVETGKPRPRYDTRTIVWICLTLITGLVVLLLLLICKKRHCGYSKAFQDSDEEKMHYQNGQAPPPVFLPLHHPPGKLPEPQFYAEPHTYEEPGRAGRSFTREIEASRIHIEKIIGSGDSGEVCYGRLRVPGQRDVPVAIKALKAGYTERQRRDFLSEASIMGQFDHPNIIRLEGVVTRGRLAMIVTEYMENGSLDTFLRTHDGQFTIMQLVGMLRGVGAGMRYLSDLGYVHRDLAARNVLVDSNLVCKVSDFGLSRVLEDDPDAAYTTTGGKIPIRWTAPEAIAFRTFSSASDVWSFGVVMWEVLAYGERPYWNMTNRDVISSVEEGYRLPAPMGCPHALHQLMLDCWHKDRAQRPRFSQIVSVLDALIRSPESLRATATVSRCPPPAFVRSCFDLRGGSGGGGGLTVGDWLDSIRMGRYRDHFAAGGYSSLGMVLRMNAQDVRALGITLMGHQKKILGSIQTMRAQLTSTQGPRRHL

[11] = molecular target: Tyrosine-protein kinase ABL2 (Homo sapiens) (UniProt P42684); assay: ABL2 Invitrogen selectivity data (BI); details: Compound concentration 3.0 uM
Tyrosine-protein kinase ABL2 (Homo sapiens), sequence (P42684 whole entry): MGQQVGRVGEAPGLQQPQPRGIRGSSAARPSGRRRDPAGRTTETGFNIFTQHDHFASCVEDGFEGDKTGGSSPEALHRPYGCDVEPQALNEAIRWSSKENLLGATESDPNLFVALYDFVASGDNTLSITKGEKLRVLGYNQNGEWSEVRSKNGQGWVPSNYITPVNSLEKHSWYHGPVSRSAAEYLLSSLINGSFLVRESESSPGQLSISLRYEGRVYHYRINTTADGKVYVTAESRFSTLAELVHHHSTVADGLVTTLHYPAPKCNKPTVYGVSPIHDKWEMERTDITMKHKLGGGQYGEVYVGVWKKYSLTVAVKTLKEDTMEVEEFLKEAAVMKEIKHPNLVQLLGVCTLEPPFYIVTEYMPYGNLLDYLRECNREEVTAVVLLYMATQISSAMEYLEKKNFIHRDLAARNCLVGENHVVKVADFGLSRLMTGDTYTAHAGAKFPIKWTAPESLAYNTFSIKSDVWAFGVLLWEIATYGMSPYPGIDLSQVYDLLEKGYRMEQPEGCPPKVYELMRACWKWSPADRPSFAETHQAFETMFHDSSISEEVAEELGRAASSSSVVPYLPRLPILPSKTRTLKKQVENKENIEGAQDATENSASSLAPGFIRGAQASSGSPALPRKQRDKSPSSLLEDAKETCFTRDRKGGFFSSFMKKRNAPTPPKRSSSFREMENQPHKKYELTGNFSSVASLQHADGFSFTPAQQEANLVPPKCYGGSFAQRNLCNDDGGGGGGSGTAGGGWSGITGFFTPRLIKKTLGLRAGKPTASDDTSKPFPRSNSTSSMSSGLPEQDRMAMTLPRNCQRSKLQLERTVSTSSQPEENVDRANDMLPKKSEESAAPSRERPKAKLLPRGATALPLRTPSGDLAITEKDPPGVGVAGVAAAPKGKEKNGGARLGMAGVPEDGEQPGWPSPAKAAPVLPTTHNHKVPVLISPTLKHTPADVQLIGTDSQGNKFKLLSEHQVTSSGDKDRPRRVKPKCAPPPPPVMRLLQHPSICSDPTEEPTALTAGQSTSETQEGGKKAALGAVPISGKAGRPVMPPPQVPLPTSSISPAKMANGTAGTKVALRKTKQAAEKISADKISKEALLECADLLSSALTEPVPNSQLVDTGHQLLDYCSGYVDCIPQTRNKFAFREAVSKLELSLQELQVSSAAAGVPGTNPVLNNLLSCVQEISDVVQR

[12] = molecular target: T2, NUAK family SNF1-like kinase 1 (Homo sapiens) (UniProt O60285); assay: NUAK1 Invitrogen selectivity data (BI); details: Compound concentration 3.0 uM
T2 sequence (whole entry): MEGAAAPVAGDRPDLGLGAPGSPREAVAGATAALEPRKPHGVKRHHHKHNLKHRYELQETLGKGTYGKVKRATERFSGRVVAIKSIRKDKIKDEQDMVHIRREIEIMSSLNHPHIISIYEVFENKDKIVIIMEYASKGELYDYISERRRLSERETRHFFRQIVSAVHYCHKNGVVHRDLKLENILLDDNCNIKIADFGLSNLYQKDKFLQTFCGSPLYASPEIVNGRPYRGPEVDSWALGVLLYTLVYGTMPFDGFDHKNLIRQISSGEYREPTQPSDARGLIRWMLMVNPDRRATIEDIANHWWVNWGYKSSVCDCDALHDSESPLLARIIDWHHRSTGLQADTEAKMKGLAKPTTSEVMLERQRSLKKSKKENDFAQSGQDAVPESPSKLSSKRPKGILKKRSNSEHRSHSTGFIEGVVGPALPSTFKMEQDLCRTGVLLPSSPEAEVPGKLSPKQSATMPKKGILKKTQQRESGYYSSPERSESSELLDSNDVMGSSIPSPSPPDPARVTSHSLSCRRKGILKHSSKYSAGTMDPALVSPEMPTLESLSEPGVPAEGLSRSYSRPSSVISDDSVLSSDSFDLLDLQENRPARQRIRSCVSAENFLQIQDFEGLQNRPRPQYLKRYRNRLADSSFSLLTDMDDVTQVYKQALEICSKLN

[13] = molecular target: Myosin light chain kinase, smooth muscle (Homo sapiens) (UniProt Q15746); assay: MYLK Invitrogen selectivity data (BI); details: Compound concentration 3.0 uM
Myosin light chain kinase, smooth muscle (Homo sapiens), sequence (Q15746 whole entry): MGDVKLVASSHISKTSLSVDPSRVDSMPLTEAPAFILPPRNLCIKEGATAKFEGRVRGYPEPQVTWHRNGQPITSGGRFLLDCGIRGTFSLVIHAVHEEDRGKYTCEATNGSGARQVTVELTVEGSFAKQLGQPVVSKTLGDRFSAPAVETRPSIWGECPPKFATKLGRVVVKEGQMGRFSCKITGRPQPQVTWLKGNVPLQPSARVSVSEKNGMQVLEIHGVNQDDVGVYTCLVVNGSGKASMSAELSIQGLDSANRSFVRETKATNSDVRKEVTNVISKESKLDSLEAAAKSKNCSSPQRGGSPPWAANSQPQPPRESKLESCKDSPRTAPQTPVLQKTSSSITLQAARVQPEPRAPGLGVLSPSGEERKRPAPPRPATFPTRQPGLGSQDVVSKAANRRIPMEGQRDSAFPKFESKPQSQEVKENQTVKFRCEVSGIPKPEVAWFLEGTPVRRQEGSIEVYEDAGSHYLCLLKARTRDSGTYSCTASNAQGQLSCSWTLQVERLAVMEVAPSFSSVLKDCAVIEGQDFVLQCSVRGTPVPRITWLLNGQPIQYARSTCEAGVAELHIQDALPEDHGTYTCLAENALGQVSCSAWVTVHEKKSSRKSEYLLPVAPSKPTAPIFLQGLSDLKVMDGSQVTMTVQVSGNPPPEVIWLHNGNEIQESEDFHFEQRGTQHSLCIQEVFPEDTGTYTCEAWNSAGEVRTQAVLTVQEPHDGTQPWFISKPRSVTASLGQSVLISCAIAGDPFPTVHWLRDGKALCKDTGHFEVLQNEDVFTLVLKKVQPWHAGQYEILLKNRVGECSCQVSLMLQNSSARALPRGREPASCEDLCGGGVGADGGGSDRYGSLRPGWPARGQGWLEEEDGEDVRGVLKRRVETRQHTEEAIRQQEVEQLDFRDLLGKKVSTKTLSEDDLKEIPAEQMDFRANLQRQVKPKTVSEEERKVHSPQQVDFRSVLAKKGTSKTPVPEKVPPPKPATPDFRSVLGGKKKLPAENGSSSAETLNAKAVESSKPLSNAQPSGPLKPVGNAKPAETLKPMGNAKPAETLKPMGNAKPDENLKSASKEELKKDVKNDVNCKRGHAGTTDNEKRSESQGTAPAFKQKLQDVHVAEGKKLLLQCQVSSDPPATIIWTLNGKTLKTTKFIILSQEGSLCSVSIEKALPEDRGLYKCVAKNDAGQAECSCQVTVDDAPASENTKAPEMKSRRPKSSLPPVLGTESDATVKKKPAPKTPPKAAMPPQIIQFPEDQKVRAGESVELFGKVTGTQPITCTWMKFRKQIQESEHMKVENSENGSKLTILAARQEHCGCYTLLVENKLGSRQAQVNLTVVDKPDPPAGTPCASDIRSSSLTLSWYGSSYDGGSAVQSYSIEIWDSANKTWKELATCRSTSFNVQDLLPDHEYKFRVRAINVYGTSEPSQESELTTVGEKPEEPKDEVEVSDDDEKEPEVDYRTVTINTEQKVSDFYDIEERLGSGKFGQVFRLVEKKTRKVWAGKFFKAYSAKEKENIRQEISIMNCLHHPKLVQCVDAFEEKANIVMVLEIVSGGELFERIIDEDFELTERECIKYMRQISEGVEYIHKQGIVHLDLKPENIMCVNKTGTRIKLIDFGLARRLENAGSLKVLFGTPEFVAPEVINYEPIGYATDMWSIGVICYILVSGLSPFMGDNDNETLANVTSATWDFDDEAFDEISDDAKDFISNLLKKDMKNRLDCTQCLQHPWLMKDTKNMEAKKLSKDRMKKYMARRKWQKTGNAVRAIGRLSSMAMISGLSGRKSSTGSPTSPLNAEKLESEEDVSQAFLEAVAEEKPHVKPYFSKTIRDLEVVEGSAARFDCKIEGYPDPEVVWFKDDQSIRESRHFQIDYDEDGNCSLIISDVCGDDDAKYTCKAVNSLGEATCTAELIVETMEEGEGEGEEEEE

[14] = molecular target: Mitogen-activated protein kinase 11 (Homo sapiens) (UniProt Q15759); assay: MAPK11 Invitrogen selectivity data (BI); details: Compound concentration 3.0 uM
Mitogen-activated protein kinase 11 (Homo sapiens), sequence (Q15759 whole entry): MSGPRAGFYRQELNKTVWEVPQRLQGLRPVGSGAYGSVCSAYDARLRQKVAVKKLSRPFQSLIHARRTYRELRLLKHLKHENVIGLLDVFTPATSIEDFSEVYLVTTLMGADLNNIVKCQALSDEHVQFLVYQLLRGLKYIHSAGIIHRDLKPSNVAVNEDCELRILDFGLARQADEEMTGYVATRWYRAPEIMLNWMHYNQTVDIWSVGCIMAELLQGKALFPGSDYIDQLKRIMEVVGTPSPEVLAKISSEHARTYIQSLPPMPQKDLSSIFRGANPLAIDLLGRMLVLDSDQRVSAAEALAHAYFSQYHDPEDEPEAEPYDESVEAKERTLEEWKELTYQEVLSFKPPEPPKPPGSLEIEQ

Measured: residual activity

Death-associated protein kinase 3 (Homo sapiens), sequence (O43293 whole entry, looked up): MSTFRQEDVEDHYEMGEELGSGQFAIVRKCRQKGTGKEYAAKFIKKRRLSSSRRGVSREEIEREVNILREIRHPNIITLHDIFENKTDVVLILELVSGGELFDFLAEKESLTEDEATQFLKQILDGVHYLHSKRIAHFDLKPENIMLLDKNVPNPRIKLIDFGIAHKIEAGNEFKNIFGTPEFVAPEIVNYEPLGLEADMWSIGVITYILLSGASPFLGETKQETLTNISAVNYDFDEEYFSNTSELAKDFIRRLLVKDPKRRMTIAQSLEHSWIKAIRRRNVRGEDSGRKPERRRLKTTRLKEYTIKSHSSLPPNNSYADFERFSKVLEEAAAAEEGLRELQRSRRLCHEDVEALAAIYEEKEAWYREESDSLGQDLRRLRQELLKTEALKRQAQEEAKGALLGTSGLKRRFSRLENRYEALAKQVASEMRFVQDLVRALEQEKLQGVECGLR

CN(C)C(=O)Cn1cc(-c2nc(C3(c4ccc(-c5cnc(N)nc5)cc4)CC3)no2)cn1 [BI 0153]
inactive: [1] 90% | [2] 92%

CN(C)C(=O)Cn1cc(-c2nc([C@@](C)(c3ccc(-c4cnc(N)nc4)cc3)C3CC3)no2)cn1 [BI 665915]
inactive: [3] 89.5% | [4] 99.5% | [5] 112% | [6] 83% | [7] 84% | Homo sapiens 98% | [8] 109% | [9] 99% | [10] 98.5% | [11] 79.5% | [12] 96% | [13] 100% | [14] 93%
